Like-named read-outs stand apart in the source and are kept apart here.
Assays:
[1] = Metabolic stability in liver microsomes; format: in vitro ADME; conditions: mouse, CD-1 mice liver microsomes
Protocol: (§1) Experimental objective: to evaluate the metabolic stability of the test compound in CD-1 mice and human liver microsomes
(§2) Experimental procedures: first, the test compound (10 mM) was subjected to a two-step dilution, where the compound was diluted to an intermediate concentration of 100 μM with 100% methanol, and the working solution was diluted to 10 μM with a potassium phosphate buffer; eight 96-well incubation plates were prepared, and named T0, T5, T10, T20, T30, T60, Blank and NCF60, respectively; the reaction time points corresponding to the first 6 incubation plates were 0, 5, 10, 20, 30 and 60 min, respectively; for the Blank plate, neither the test compound nor a control compound was added, and for the NCF60 plate, potassium phosphate buffer was used in an incubation of 60 min in place of a NADPH regeneration system solution; 10 μL of the test compound working solution and 80 μL of the microsome working solution (liver microsome protein concentration was 0.625 mg/mL) were added to the T0, T5, T10, T20, T30, T60 and NCF60 plates, while only the microsome working solution was added to the Blank plate, and all the incubation plates were then placed in a 37° C. water bath for pre-incubation for about 10 min; after the pre-incubation, 10 μL of a NADPH regeneration system working solution was added into each sample well of all the plates except the NCF60 plate and T0 plate to start the reaction, and 10 μL of potassium phosphate buffer was added to each well of the NCF60 plate; therefore, in the test compound or control compound samples, the final reaction concentrations of the compound, testosterone, diclofenac and propafenone were 1 μM, the concentration of the liver microsomes was 0.5 mg/mL, and the final concentrations of DMSO and acetonitrile in the reaction system were 0.01% (v/v) and 0.99% (v/v), respectively; after incubation for an appropriate time (such as 5, 10, 20, 30, and 60 min), 300 μL of a stop solution (acetonitrile solution containing 100 ng/mL tolbutamide and 100 ng/mL labetalol) was added to each sample well to stop the reaction; 300 μL of the stop solution and then 10 μL of the NADPH working solution were added to the T0 plate, all the sample plates were shaken and centrifuged in a centrifuge (3220×g) for 20 min, and then 100 μL of supernatant was taken from each well and diluted with 300 μL of pure water for liquid chromatography-tandem mass spectrometry analysis.

CYP3A4 = biological target: T1, CYP3A4 (Homo sapiens, UniProt P08684); experiment: Inhibition of human liver microsomal cytochrome P450 isoenzymes; format: in vitro ADME; conditions: human liver microsomes
T1 construct: from tissue; host or cells: human liver microsomes
Protocol: (§3) Experimental objective: to determine the inhibitory effect of the test compound on the activity of human liver microsomal cytochrome P450 isoenzymes (CYP1A2, CYP2C9, CYP2C19, CYP2D6 and CYP3A4). Experimental procedures: first, the test compound (10 mM) was diluted in gradient to prepare working solutions (100× final concentration) at concentrations of: 5, 1.5, 0.5, 0.15, 0.05, 0.015, and 0.005 mM, and working solutions of positive inhibitors for P450 isoenzymes (CYP1A2, CYP2C9, CYP2C19, CYP2D6, and CYP3A4) and the specific substrate mixtures thereof (5 in 1) were prepared simultaneously; human liver microsomes frozen in a−80° C. refrigerator were thawed on ice, and after all thawed, the human liver microsomes were diluted with PB to prepare a working solution at a specific concentration (0.253 mg/mL); 20 μL of the substrate mixture (20 μL of PB was added into the blank well) and 158 μL of the working solution of human liver microsomes were added into the reaction plate which was then placed on ice for use; then 2 μL of the test compound at each concentration (N=1) and a specific inhibitor (N=2) were added into the corresponding well, and the group without the inhibitor (test compound or the positive inhibitor) was added with a corresponding organic solvent as a control sample (the test compound control sample was 1:1 DMSO:MeOH; the positive control sample was 1:9 DMSO:MeOH); after pre-incubation under a 37° C. water bath for 10 min, 20 μL of a coenzyme factor (NADPH) solution was added into the reaction plate and incubated under a 37° C. water bath for 10 min, 400 μL of a cold acetonitrile solution (the internal standard was 200 ng/mL Tolbutamide and Labetalol) was added to terminate the reaction, and the reaction plate was placed on a shaker and shaken for 10 min; after centrifugation at 4,000 rpm for 20 min, 200 μL of the supernatant was collected and added to 100 μL of water to dilute the sample, and, finally, the plate was sealed, oscillated shaken evenly, and subjected to LC/MS/MS detection.

CYP2C9 = biological target: T2, CYP2C9 (Homo sapiens, UniProt P11712); experiment: as above; format: in vitro ADME; conditions: human liver microsomes
T2 construct: from tissue; host or cells: human liver microsomes
Protocol: as §3

CYP2D6 = biological target: T3, CYP2D6 (Homo sapiens, UniProt P10635); experiment: as above; format: in vitro ADME; conditions: human liver microsomes
T3 construct: from tissue; host or cells: human liver microsomes
Protocol: as §3

CYP1A2 = biological target: T4, CYP1A2 (Homo sapiens, UniProt P05177); experiment: as above; format: in vitro ADME; conditions: human liver microsomes
T4 construct: from tissue; host or cells: human liver microsomes
T4 sequence (P05177 1-516): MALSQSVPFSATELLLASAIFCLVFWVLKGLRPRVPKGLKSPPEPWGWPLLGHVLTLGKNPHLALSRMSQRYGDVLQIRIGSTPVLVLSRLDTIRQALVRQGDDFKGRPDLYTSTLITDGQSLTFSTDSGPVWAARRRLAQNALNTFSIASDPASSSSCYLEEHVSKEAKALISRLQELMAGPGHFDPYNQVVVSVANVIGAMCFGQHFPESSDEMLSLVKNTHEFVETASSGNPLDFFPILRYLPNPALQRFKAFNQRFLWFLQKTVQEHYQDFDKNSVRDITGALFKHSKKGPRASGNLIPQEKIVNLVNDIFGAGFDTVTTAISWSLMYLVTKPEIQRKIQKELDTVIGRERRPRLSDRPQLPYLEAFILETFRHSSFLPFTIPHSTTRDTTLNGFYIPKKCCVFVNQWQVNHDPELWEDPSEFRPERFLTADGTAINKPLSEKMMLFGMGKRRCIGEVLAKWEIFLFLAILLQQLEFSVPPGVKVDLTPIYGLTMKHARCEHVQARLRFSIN
Protocol: as §3

CYP2C19 = biological target: T5, CYP2C19 (Homo sapiens, UniProt P33261); experiment: as above; format: in vitro ADME; conditions: human liver microsomes
T5 construct: from tissue; host or cells: human liver microsomes
Protocol: as §3

HBV = experiment: qPCR test in the HBV in vitro test (HBV DNA in HepG2.2.15 cells); format: cell-based; conditions: Hepatitis B virus, 192 h, HBV DNA in HepG2.2.15 culture medium, day 8, read-out: Half maximal inhibitory concentration (EC50) of HBV
Protocol: To evaluate the inhibitory effect of the compound on HBV by detecting content of HBV DNA in HepG2.2.15 cells in a real-time qPCR test, with EC50 of the compound as an indicator.
3.1. HepG2.2.15 cells (4×10^4 cells/well) were inoculated into a 96-well plate and cultured at 37° C. in 5% CO2 overnight. 3.2. On day 2, the compound was 3-fold diluted in gradient for a total of 8 dilution gradients. The compound at different concentrations was added into the culture wells in duplicate. The final concentration of DMSO in the culture medium was 1%. 1 μM GLS4 was used as a 100% inhibition control (the structure of GLS4 disclosed in WO2008154817A1 is as follows:
1% DMSO was used as a 0% inhibition control. 3.3. On day 5, the culture medium was replaced with a fresh culture medium containing the compound. 3.4. On day 8, the culture medium in the culture wells was collected, and the high-throughput DNA purification kit (Qiagen-51162) was used to extract DNA. For specific steps, refer to the product manual.
3.6. Each well of the 96-well PCR plate was added with 15 μL of the reaction mixture, and then with 10 μL of sample DNA or HBV DNA standard. 3.7. The reaction conditions for PCR: heating at 95° C. for 10 min, degeneration at 95° C. for 15 s, and extension at 60° C. for 1 min, with a total of 40 cycles.
3.8.1. Calculation of the inhibition percentage: % Inh.=[1−(DNA copy number in the sample−DNA copy number in 1 μM GLS4)/(DNA copy number in the DMSO control−DNA copy number in 1 μM GLS4)]×100. 3.8.2. Calculation of EC50: half maximal inhibitory concentration (EC50) of the compound for HBV was calculated using GraphPad Prism software. 3.8.3.

[2] = Metabolic stability in liver microsomes; format: in vitro ADME, human
Protocol: as §1, §2

T3 sequence (P10635 whole entry): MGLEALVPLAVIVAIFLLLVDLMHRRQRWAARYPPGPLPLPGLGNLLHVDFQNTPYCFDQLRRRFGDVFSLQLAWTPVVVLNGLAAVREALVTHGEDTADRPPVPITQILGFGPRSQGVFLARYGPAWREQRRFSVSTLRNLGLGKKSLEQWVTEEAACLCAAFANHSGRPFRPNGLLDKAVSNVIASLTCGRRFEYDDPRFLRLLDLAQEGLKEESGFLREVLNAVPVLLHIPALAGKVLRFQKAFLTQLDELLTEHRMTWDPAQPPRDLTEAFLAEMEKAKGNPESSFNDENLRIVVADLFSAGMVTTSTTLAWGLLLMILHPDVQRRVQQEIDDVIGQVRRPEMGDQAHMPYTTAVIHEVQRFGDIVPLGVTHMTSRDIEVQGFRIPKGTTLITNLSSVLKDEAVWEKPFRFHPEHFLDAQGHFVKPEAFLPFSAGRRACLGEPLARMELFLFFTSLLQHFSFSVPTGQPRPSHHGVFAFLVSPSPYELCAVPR
T1 sequence (P08684 whole entry): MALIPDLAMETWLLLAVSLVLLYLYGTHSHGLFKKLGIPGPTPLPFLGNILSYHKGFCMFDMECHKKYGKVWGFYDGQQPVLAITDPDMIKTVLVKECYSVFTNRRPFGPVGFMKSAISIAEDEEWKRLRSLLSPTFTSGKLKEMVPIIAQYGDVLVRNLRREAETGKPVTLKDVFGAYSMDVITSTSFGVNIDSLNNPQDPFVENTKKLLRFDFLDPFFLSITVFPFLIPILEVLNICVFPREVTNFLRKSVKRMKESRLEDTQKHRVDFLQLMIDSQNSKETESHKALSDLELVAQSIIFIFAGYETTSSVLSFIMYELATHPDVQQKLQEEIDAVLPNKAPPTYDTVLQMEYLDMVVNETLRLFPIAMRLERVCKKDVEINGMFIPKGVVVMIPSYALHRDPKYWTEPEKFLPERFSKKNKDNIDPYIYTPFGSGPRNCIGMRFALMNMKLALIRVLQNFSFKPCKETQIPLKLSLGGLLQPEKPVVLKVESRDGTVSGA
T2 sequence (P11712 whole entry): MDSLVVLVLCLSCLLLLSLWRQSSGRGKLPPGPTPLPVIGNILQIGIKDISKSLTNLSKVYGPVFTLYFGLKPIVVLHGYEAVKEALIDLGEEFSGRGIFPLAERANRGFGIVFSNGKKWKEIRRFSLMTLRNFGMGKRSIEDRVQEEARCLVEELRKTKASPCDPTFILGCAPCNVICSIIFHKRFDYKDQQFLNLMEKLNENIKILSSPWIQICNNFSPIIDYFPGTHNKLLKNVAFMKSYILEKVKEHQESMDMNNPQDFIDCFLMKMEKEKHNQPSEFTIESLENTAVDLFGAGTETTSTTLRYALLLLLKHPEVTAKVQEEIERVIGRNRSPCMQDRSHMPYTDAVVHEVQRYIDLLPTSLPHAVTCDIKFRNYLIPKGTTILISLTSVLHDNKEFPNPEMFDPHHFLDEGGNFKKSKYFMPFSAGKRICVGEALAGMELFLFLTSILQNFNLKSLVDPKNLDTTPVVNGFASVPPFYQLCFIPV
T5 sequence (P33261 whole entry): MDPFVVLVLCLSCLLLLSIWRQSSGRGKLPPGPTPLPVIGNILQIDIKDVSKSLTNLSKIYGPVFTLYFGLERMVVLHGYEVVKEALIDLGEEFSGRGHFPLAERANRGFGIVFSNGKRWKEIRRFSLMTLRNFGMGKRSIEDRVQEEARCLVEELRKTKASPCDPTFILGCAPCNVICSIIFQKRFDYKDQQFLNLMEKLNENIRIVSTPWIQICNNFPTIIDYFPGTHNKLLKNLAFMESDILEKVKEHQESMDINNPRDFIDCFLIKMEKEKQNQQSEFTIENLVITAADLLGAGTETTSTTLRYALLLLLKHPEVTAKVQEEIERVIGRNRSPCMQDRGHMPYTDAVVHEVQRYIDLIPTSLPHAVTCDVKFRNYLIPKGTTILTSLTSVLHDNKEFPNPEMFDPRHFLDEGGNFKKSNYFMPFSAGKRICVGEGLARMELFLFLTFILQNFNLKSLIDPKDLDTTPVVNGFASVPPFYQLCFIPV

`C[C@]1(NC(=O)C(=O)c2c(Cl)c(C(=O)Nc3ccc(F)c(F)c3)c3n2CCC3)CC[C@@H](CC(=O)O)CC1` [Compound 17] showed a CLint scaled at 1 μM [1] of under 38 mL/min/kg, a half-life at 1 μM ([1]; 1 μM compound, 0.5 mg/mL) of over 2.42 h and a microsomal CLint at 1 μM ([1]; read-out: CLint(mic)) of under 9.6 µL/min/mg. For the same molecule, the IC50 (CYP3A4) was over 50 µM, the IC50 (CYP2C9) was over 50 µM and the IC50 (CYP2D6) was over 50 µM. For the same molecule, the IC50 (CYP1A2) was over 50 µM, the IC50 (CYP2C19) was over 50 µM and the EC50 (HBV) was 0.007 µM. For the same molecule, the half-life at 1 μM ([2]; Human liver microsomes, 1 μM compound, 0.5 mg/mL) was over 2.42 h, the CLint scaled at 1 μM ([2]; human liver microsomes) was under 8.6 mL/min/kg and the microsomal CLint at 1 μM ([2]; human liver microsomes, read-out: CLint(mic)) was under 9.6 µL/min/mg.

— patent publication US20220204510A1, “2,3-DIHYDRO-1H-PYRROLIZINE-7-FORMAMIDE DERIVATIVE AND APPLICATION THEREOF” (CHIA TAI TIANQING PHARMACEUTICAL GROUP CO., LTD., priority 2018, published 2022)
